Results: patent US20190336608A1, “CATIONIC CARRIERS FOR NUCLEIC ACID DELIVERY” (priority 2016, published 2019)

Assays:
[1] = test system: HepG2 cells; assay: Transfection efficiency of HepG2 cells in vitro (GpLuc mRNA, luminescence of supernatant); format: cell-based, human; details: for effect on transfection efficiency (in words): added to polymer PB83, 24 h post transfection, compared to polymer alone
Method: This example describes the evaluation of the effect of different polymer-lipid(oid) formulations (as described under Example ▪1) on transfection efficiency on HepG2 cells (human liver carcinoma cell line). As a read-out for transfection efficiency, GpLuc mRNA (SEQ ID NO: 14) was used as a cargo. Successful transfection with the cargo leads to the translation of the luciferase protein and to a secretion of Gp luciferase protein into the cell culture supernatant.
A volume of 0.2 mL HepG2 cells (10.000 cells) were seeded in a 96 well tissue culture plate. After removing the medium from each well, 100 μL RPMI 1640 medium (with 1% Penicillin and 1% Streptomycin, 1% L-Glutamin) was added to each well. Afterwards, HepG2 cells were transfected with 100 μL transfection mix (in triplicates) of the above described polymer-lipid(oid) mRNA complexes and respective controls (in triplicates), and cells were incubated at 37° C. and 5% CO2 for 90 minutes. After incubation, 150 μL medium was exchanged with 150 μL fresh RPMI 1640 medium supplemented with 10% fetal calf serum. Twenty-four hours post transfection, 10 μL of supernatant of each well was extracted and used for further luminescence analysis (see below).
A volume of 10 μL supernatant was transferred to a 96 well plate for GpLuc measurement. Then, coelenterazine working solution (100 μM) was prepared (1 mL coelenterazine stock solution (4.72 mM in EtOH) in 49 mL phosphate buffered saline supplemented with 5 mM NaCl, pH 7.2). A volume of 100 μL coelenterazine working solution was used as a substrate for GpLuc and measured after 5 seconds in a commercially available microplate reader.

[2] = test system: Sol8 muscle cells; assay: Transfection efficiency of differentiated Sol8 muscle cells in vitro (GpLuc mRNA); format: cell-based, mouse; details: added to polymer PB83, low- and high-charge ratio complexes, 24 h post transfection
Description: The purpose of this example is to assess the effect of lipid additives such as permanently cationic lipids or lipidoids on transfection/expression efficiency in Sol8 cells. […] Sol8 is a myogenic cell line isolated by Daubas et al. from primary cultures of soleus muscle taken from the leg of a normal C3H mouse. As a read-out for transfection efficiency, GpLuc mRNA (SEQ ID NO: 14) was used as the cargo. A successful transfection with the cargo leads to the translation of the luciferase protein and to a secretion of Gp luciferase protein into the cell culture supernatant. For further details on the GpLuc mRNA cargo see Example 1.
For a subset on hydrogel, a volume of 0.2 mL Sol8 cells (20.000 cells) were seeded in 96 well glass bottom plates (Softwell Hydrogel coated with collagen (elasticity E=12 kPa)) on day 1. For another subset without hydrogel, a volume of 0.2 mL with 10.000 Sol8 cells per well were seeded in a 96 well glass bottom plates.
After removing the medium from each well, 100 μL DMEM medium (with 2% horse serum) was added to each well. Afterwards, on day 2, Sol8 cells were transfected with 100 μL transfection mix of polymer-lipid(oid) complexes (in triplicates without serum) and respective controls (also in triplicates), and cells were incubated at 37° C. and 5% CO2 for 120 minutes (non-hydrogel subset) or respectively 90 minutes (hydrogel subset). After incubation, 150 μL medium was exchanged with 150 μL fresh DMEM medium supplemented with 10% fetal calf serum.
Twenty-four hours post transfection, i.e. on day 3, 10 μL of supernatant of each well was extracted and used for quantification of protein expression (measurement of GpLuc) via luminescence analysis as described above.

[3] = test system: hemagglutinin (HA) protein of influenza A virus (A/Netherlands/602/2009 (H1N1)); assay: Hemagglutination inhibition assay after intramuscular vaccination with HA-mRNA and 3-C12-OH (second Example 7); format: in vivo; details: Balb/c mice, 10 μg HA-mRNA R2564 with 3-C12-OH, i.m.; after prime and boost vaccination
[4] = test system: hemagglutinin (HA) protein of influenza A virus (A/Netherlands/602/2009 (H1N1)); assay: ELISA of influenza specific IgG1 and IgG2a antibodies in sera of vaccinated mice; format: in vivo; details: Balb/c mice, 10 μg HA-mRNA with 3-C12-OH i.m.; 21 days after prime and 14 days after boost
[5] = test system: hemagglutinin (HA) protein of influenza A virus (A/Netherlands/602/2009 (H1N1)); format: in vivo; details: Balb/c mice, 10 μg HA-mRNA with 3-C12-OH i.m.; splenocytes 14 days after boost

SMILES	effect on transfection efficiency (in words) [1]	effect on transfection efficiency / expression level (in words) [2]	antibody titers against the HA protein compared to HA-mRNA (R2564) alone [3]	functional antibody titers, IgG1 subtype, compared to mRNA without lipid [4]	functional antibody titers, IgG2a subtype, compared to mRNA without lipid [4]	IFNy production compared to non-lipid-formulated mRNA [5]	increase in transfection efficiency compared to transfections with polymer alone ([1]; combination with polymer PB83, high-charge complexes N/P 2, N/P 4, N/P 6, 24 h post transfection)
CCCCCCCCCCC(O)C[N+](C)(C)CCN(CC[N+](C)(C)CC(O)CCCCCCCCCC)CC[N+](C)(C)CC(O)CCCCCCCCCC (centres unmarked) [3-C12-OH-cat]	profound increase						
CCCCCCCCCCC(O)CNCCN(CCNCC(O)CCCCCCCCCC)CCNCC(O)CCCCCCCCCC (centres unmarked) [3-C12-OH]	profound increase	profound increase	significantly higher	significantly higher	significantly higher	significant increased	
CCCCCCCCCCCCNCCN(CCNCCCCCCCCCCCC)CCNCCCCCCCCCCCC [3-C12]	profound increase	profound increase					
CCCCCCCC/C=C\CCCCCCCC(=O)OCC(C[N+](C)(C)C)OC(=O)CCCCCCC/C=C\CCCCCCCC (centres unmarked) [DOTAP, 1,2-dioleoyl-3-trimethylammonium-propane, reference compound]		effective					up to 3 log units
